Reference: US20260078103A1, “ISOQUINOLONES AS PI3K INHIBITORS” (OnKure, Inc., priority 2022, published 2026)
Read-outs that look alike come from different tables or passages of the source.

Key:
Type in all cases: cell-based
[1] = system: phosphorylation of AKT (pAKT) in T47D cells expressing mutant PI3Ka (H1047R); test: In vitro cell pAKT (Ser473) HTRF, T47D cells; conditions: cellular pAKT, T47D cells, mutant PI3Ka (H1047R), 6 hours, read-out: Avg T-47D IC50
How it was run: (§1)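 T47D cells (RPMI, 10% FBS, 0.2 units/mL insulin) or SKBR3 cells (McCoy's 5a, 10% FBS) were seeded onto 10-point compound dilutions and incubated 6 h at 37 °C. After lysis, pAKT was detected overnight by HTRF (Eu cryptate/d2). IC50 was fitted from % inhibition relative to 0.1% DMSO and 10 uM alpelisib controls.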

[2] = system: SKBR3 cells express WT PI3Ka; test: In vitro cell proliferation, SKBR3 cells (CellTiter-Glo); conditions: inhibition of proliferation
How it was run: (§2)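 T47D cells in RPMI/10% FBS/insulin (0.2 units/mL) or SKBR3 in McCoys 5a/10% FBS, 1,500 cells/well, grown 72 h at 37 °C with 10-point compound dilutions. CellTiter-Glo luminescence; % inhibition normalised to 0.1% DMSO and 10 uM Alpelisib, EC50 from four-parameter curve fit.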

[3] = system: T47D cells expressing mutant PI3Ka (H1047R); test: In vitro cell proliferation, T47D cells (CellTiter-Glo); conditions: inhibition of proliferation, read-out: Avg T-47D EC50
How it was run: as §2

[4] = system: phosphorylation of AKT (pAKT) in SKBR3 cells express WT PI3Ka; test: In vitro cell pAKT (Ser473) HTRF, SKBR3 cells; conditions: cellular pAKT
How it was run: as §1

Row | Structure (SMILES) | IC50 ([1]; Homo sapiens, T47D, 6 h) [µM] | EC50 ([2]; Homo sapiens, SK-BR-3, 72 h) [µM] | EC50 ([3]; Homo sapiens, T47D, 72 h) [µM] | IC50 ([4]; Homo sapiens, SK-BR-3, 6 h) [µM] | IC50 [1] [µM] | EC50 ([2]; 72 hours) [µM] | EC50 ([3]; 72 hours) [µM] | IC50 ([4]; 6 hours) [µM]
1 | Cc1cc([C@@H](C)Nc2ccccc2C(=O)O)c2cc(N3CCN(Cc4cnn(C)c4)CC3)n(C)c(=O)c2c1 [Example 200] | 0.5 to 2 | > 15 | 0.5 to 2 | > 15 |  |  |  | 
2 | Cc1cc([C@@H](C)Nc2ccccc2C(=O)O)c2cc(-c3ccc(OCC(F)F)nc3)n(C)c(=O)c2c1 [Example 201] | 0.001 to 0.5 | > 15 | 0.001 to 0.5 | > 15 |  |  |  | 
3 | Cc1cc([C@@H](C)Nc2ccccc2C(=O)O)c2cc(-c3ccc(O[C@H]4C[C@@H](F)C4)nc3)n(C)c(=O)c2c1 [Example 202] |  |  |  |  | 0.001 to 0.5 | > 15 | 0.001 to 0.5 | > 15
4 | Cc1cc([C@@H](C)Nc2ccccc2C(=O)O)c2cc(N3CCN(C(=O)OC4CC4)CC3)n(C)c(=O)c2c1 [Example 203] | 0.001 to 0.5 | > 15 | 0.001 to 0.5 | > 15 |  |  |  | 
5 | Cc1cc([C@@H](C)Nc2ccccc2C(=O)O)c2cc(N3CCN(c4cccnc4C)CC3)n(C)c(=O)c2c1 [Example 206] | 0.001 to 0.5 | 2 to 15 | 0.001 to 0.5 | 0.5 to 2 |  |  |  | 
6 | Cc1cc([C@@H](C)Nc2ccccc2C(=O)O)c2cc(N3CC4CC(C3)N4CC(F)(F)F)n(C)c(=O)c2c1 [Example 207] | 0.001 to 0.5 | > 15 | 0.001 to 0.5 | > 15 |  |  |  | 
7 | Cc1cc([C@@H](C)Nc2ccccc2C(=O)O)c2cc(-c3ccc(OCC4CC4)nc3)n(C)c(=O)c2c1 [Example 208] | 0.001 to 0.5 | > 15 | 0.001 to 0.5 | > 15 |  |  |  | 
8 | Cc1cc([C@@H](C)Nc2ccccc2C(=O)O)c2cc(-c3ccc(C)nc3C)n(C)c(=O)c2c1 [Example 209] | 0.001 to 0.5 | > 15 | 0.5 to 2 | > 15 |  |  |  | 
9 | Cc1cc([C@@H](C)Nc2ccccc2C(=O)O)c2cc(-c3cnc(C)c(C)c3)n(C)c(=O)c2c1 [Example 210] | 0.001 to 0.5 | > 15 | 0.5 to 2 | > 15 |  |  |  | 
10 | Cc1cc([C@@H](C)Nc2ccccc2C(=O)O)c2cc(-c3cnn(C4CC4)c3)n(C)c(=O)c2c1 [Example 212] | 0.5 to 2 | > 15 | 0.5 to 2 | > 15 |  |  |  | 
11 | Cc1cc([C@@H](C)Nc2ccccc2C(=O)O)c2cc(N3CCN(Cc4ccnc(C)n4)CC3)n(C)c(=O)c2c1 [Example 214] | 0.001 to 0.5 | > 15 | 0.001 to 0.5 | > 15 |  |  |  | 
12 | Cc1cc([C@@H](C)Nc2ccccc2C(=O)O)c2cc(-c3ccc(OC4CC4)nc3)n(C)c(=O)c2c1 [Example 216] | 0.001 to 0.5 | > 15 | 0.001 to 0.5 | > 15 |  |  |  | 
13 | Cc1cc(C(C)Nc2ccccc2C(=O)O)c2cc(-c3ccc(OC4CC(F)C4)nc3)n(C)c(=O)c2c1 (stereo not drawn) [Example 217] |  |  |  |  | 0.001 to 0.5 | 2 to 15 | 0.001 to 0.5 | > 15
14 | COc1ccc(N2CCN(c3cc4c([C@@H](C)Nc5ccccc5C(=O)O)cc(C)cc4c(=O)n3C)CC2)cn1 [Example 218] | 0.001 to 0.5 | 2 to 15 | 0.001 to 0.5 | 2 to 15 |  |  |  | 
15 | Cc1cc([C@@H](C)Nc2ccccc2C(=O)O)c2cc(N3CCC4(CC3)CN(CC(F)(F)F)C4)n(C)c(=O)c2c1 [Example 219] |  |  |  |  | 0.001 to 0.5 | 2 to 15 | 0.001 to 0.5 | 2 to 15
16 | Cc1cc([C@@H](C)Nc2ccccc2C(=O)O)c2cc(N3CCN(c4cnn(C)c4)CC3)n(C)c(=O)c2c1 [Example 220] | 0.001 to 0.5 | > 15 | 0.001 to 0.5 | 2 to 15 |  |  |  | 
17 | Cc1cc([C@@H](C)Nc2ccccc2C(=O)O)c2cc(N3CCN(c4ccccc4F)CC3)n(C)c(=O)c2c1 [Example 221] | 0.001 to 0.5 | > 15 | 0.001 to 0.5 | 2 to 15 |  |  |  | 

Row | Structure (SMILES) | IC50 ([1]; Homo sapiens, T47D, 6 h) [µM] | EC50 ([2]; Homo sapiens, SK-BR-3, 72 h) [µM] | EC50 ([3]; Homo sapiens, T47D, 72 h) [µM] | IC50 ([4]; Homo sapiens, SK-BR-3, 6 h) [µM] | IC50 [1] [µM] | EC50 ([2]; 72 hours) [µM] | EC50 ([3]; 72 hours) [µM] | IC50 ([4]; 6 hours) [µM]
18 | Cc1cc([C@@H](C)Nc2ccccc2C(=O)O)c2cc(NCc3ccc(F)cc3)n(C)c(=O)c2c1 [Example 222] | 2 to 15 | > 15 | 2 to 15 | > 15 |  |  |  | 
19 | Cc1cc([C@@H](C)Nc2ccccc2C(=O)O)c2cc(-c3cnc(C)cc3C)n(C)c(=O)c2c1 [Example 223] | 0.001 to 0.5 | > 15 | 0.5 to 2 | > 15 |  |  |  | 
20 | Cc1cc([C@@H](C)Nc2ccccc2C(=O)O)c2cc(-c3ccc(C(C)(C)F)nc3)n(C)c(=O)c2c1 [Example 225] | 0.001 to 0.5 | > 15 | 0.001 to 0.5 | > 15 |  |  |  | 
21 | Cc1cc([C@@H](C)Nc2ccccc2C(=O)O)c2cc(-c3ccc(C(C)C)nc3)n(C)c(=O)c2c1 [Example 226] | 0.001 to 0.5 | > 15 | 0.001 to 0.5 | > 15 |  |  |  | 
22 | Cc1cc([C@@H](C)Nc2ccccc2C(=O)O)c2cc(-c3ccc(C4CC4)nc3)n(C)c(=O)c2c1 [Example 227] | 0.001 to 0.5 | > 15 | 0.001 to 0.5 | > 15 |  |  |  | 
23 | Cc1cc([C@@H](C)Nc2ccccc2C(=O)O)c2cc(-c3ccc(C(C)(F)F)nc3)n(C)c(=O)c2c1 [Example 230] | 0.001 to 0.5 | > 15 | 0.001 to 0.5 | > 15 |  |  |  | 
24 | Cc1cc([C@@H](C)Nc2ccccc2C(=O)O)c2cc(N3CCN(c4cnn(C)n4)CC3)n(C)c(=O)c2c1 [Example 231] | 0.001 to 0.5 | 2 to 15 | 0.001 to 0.5 | 2 to 15 |  |  |  | 
25 | Cc1cc([C@@H](C)Nc2ccccc2C(=O)O)c2cc(N3CCN(c4ccn(C)n4)CC3)n(C)c(=O)c2c1 [Example 232] | 0.001 to 0.5 | 2 to 15 | 0.001 to 0.5 | 2 to 15 |  |  |  | 
26 | CNc1ccc(N2CCN(c3cc4c([C@@H](C)Nc5ccccc5C(=O)O)cc(C)cc4c(=O)n3C)CC2)cn1 [Example 233] | 0.001 to 0.5 | 2 to 15 | 0.001 to 0.5 | 2 to 15 |  |  |  | 
27 | COc1ncc(-c2cc3c([C@@H](C)Nc4ccccc4C(=O)O)cc(C)cc3c(=O)n2C)cn1 [Example 234] | 0.001 to 0.5 | > 15 | 0.001 to 0.5 | > 15 |  |  |  | 
28 | Cc1cc([C@@H](C)Nc2ccccc2C(=O)O)c2cc(N3CCN(c4cncnc4)CC3)n(C)c(=O)c2c1 [Example 235] | 0.5 to 2 | 2 to 15 | 0.001 to 0.5 | 2 to 15 |  |  |  | 
29 | Cc1cc([C@@H](C)Nc2ccccc2C(=O)O)c2cc(N3CCN(c4cncnc4C)CC3)n(C)c(=O)c2c1 [Example 236] | 0.001 to 0.5 | 2 to 15 | 0.001 to 0.5 | 2 to 15 |  |  |  | 
30 | Cc1cc([C@@H](C)Nc2ccccc2C(=O)O)c2cc(N3CCN(c4cnc(C)nc4)CC3)n(C)c(=O)c2c1 [Example 237] | 0.001 to 0.5 | 2 to 15 | 0.001 to 0.5 | 2 to 15 |  |  |  | 
31 | CCOc1ncc(-c2cc3c([C@@H](C)Nc4ccccc4C(=O)O)cc(C)cc3c(=O)n2C)cc1F [Example 238] | 0.001 to 0.5 | > 15 | 0.001 to 0.5 | > 15 |  |  |  | 
32 | Cc1cc([C@@H](C)Nc2ccccc2C(=O)O)c2cc(-c3cnc(C4CC4)s3)n(C)c(=O)c2c1 [Example 239] | 0.001 to 0.5 | > 15 | 0.001 to 0.5 | > 15 |  |  |  | 
33 | Cc1cc([C@@H](C)Nc2ccccc2C(=O)O)c2cc(-c3cnc4c(c3)CCC4(F)F)n(C)c(=O)c2c1 [Example 240] | 0.001 to 0.5 | > 15 | 0.001 to 0.5 | > 15 |  |  |  | 
